The values below come from patent US20120136416A1, “Caged Neuropeptides: modulation and measurement of synapse and signaling activity; and methods for drug evaluation, pharmaceuticals preparation and treatment” (PRESIDENT AND FELLOWS OF HARVARD COLLEGE, priority 2010, published 2012).

The target of assay [1] is human kappa opioid receptors (OPRK1) (Homo sapiens, UniProt P41145). In kind it is cell-based.
For assay [2], the system named is locus coeruleus (LC) neurons. The experiment in a line: Whole-cell recordings from locus coeruleus neurons in acute brain slices, local perfusion or UV uncaging. It counts as cell-based, rat.
In assay [3] the test system is CA1 region of the hippocampus. The experiment in a line: Extracellular field potential recordings (population spike) in acute hippocampal slices, UV uncaging. In kind it is cell-based, mice. How it is done: Preliminary electrophysiological evaluation was carried out in transverse hippocampal slices from P15-18 mice and focused on inhibitory neurons, the predominant cells expressing Mu and Delta opioid receptors in the CA1 region. Initial neurophysiological evaluations were carried out in acute hippocampal slices from P24-30 mice. […] Extracellular field potential recordings reveal this as an increase in the population spike (pSpike) amplitude in response to Schaeffer collateral stimulation at 0.1 Hz. […] These experiments confirmed that photolysis in living tissue elicits a physiological response.

human kappa opioid receptors (OPRK1), sequence (P41145 whole entry, looked up, the tested form may be a part): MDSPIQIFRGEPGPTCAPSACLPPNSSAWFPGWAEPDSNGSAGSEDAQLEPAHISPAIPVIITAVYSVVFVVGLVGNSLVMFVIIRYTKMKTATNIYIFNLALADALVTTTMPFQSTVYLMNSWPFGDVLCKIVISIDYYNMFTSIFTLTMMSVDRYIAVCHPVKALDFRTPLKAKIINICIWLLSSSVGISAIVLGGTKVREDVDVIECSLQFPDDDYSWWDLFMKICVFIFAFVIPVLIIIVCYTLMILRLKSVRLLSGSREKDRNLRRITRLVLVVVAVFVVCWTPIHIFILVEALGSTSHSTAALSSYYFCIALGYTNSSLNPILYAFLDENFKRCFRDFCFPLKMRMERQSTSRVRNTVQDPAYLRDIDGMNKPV

Take `CC(C)C[C@H](NC(=O)[C@H](Cc1ccccc1)NC(=O)CNC(=O)CNC(=O)[C@@H](N)Cc1ccc(O)cc1)C(=O)O` [L-Enk, Leu-Enkephalin]: the “activation of kappa receptors” value in assay [1] is recorded as “did not activate”.

As for `Nc1ccncc1` [4-AP], the “effect on residual Ba^2+-insensitive outward current” value in assay [2] is listed as “unable to block or occlude”.

Take `CC1(C)[C@@H](OC(=O)CCC(=O)O)CC[C@]2(C)[C@H]3C(=O)C=C4[C@@H]5C[C@@](C)(C(=O)O)CC[C@]5(C)CC[C@@]4(C)[C@]3(C)CC[C@@H]12` [carbenoxolone]: the “effect on responses to the uncaging stimuli” value in assay [2] (100 uM, n=10 cells) is on record as “not significantly attenuated”.

For `C=CCN1CC[C@]23c4c5ccc(O)c4O[C@H]2C(=O)CC[C@@]3(O)[C@H]1C5` [naloxone], the “effect on light-evoked outward current” value in assay [2] (2 μM, uncaging of 10 μM CYLE) is listed as “blocked”. Also, in assay [3], the “effect on light-evoked pSpike increases” value is “blocked”.

ZD7288: the “effect on residual Ba^2+-insensitive outward current” value in assay [2] is listed as “unable to block or occlude”.

Turning to `[Cl][Cd][Cl]` [Cd^2+, CdCl2], the “effect on residual Ba^2+-insensitive outward current” value in assay [2] is “unable to block or occlude”.

Turning to `[Ba+2].[Cl-].[Cl-]` [Ba^2+, BaCl2], the outward current blocked in assay [2] was determined as 80%.
